Assay results published in paper PMC6877910, “Astrocyte-Targeted Transporter-Utilizing Derivatives of Ferulic Acid Can Have Multifunctional Effects Ameliorating Inflammation and Oxidative Stress in the Brain” (Oxidative Medicine and Cellular Longevity, 2019).
Where two headings read alike, the source gives them in different places.

Columns and labels:
OATP/OAT = experiment: Transporter-mediated cellular uptake into primary astrocytes, secondary mechanism (Eadie-Hofstee); format: in vitro ADME, mouse; conditions: Eadie-Hofstee analysis, mean ± SD, n = 3
Procedure: (§1) For the cell uptake experiments, the astrocytes were seeded on 24-well plates with a density of 10 × 10^4 cells/well three days before the experiments as described earlier. Cellular uptake of derivatives 1-3 of FA was studied by incubating the cells at 37°C for 30 min (uptake was linear with all compounds up to 30 min) with compounds at the concentration of 1-200 μM in prewarmed HBSS buffer (250 μL). […]; Agilent Technologies, Santa Clara, CA). The concentrations of each compound in cell lysates were calculated from the standard curve that was prepared by spiking known amounts of compounds to ACN including the selected internal standard and then normalized with protein concentration. The protein concentrations on each plate were determined as a mean of three samples by Bio-Rad Protein Assay, based on the Bradford dye-binding method, using bovine serum albumin (BSA) as a standard protein and measuring the absorbance (595 nm) by a multiplate reader (EnVision, PerkinElmer, Inc., Waltham, MA, USA).
(§2) All the cellular studies were carried out as three biological replicates from the same cell passage. The function of LAT1 was followed between the used cell passages (7-16) with a LAT1 probe substrate, [^14C]-L-leucine, and noticed to be unaltered. All statistical analyses, including Michaelis-Menten, Eadie-Hofstee, and Hanes-Woolf analyses, were performed using GraphPad Prism v. 5.03 software (GraphPad Software, San Diego, CA, USA). Statistical differences between groups were tested using one-way ANOVA, followed by Tukey's multiple comparison test, and presented as the mean ± SD, with significant differences denoted by asterisks (^∗P < 0.05, ^∗∗P < 0.01, and ^∗∗∗P < 0.001).

[1] = target: T1, butyrylcholinesterase (BChE) (Mus musculus, UniProt Q03311); experiment: biochemical; format: biochemical; conditions: mouse brain S9 subcellular fraction, 30 min end point, mean ± SD, n = 3; for IC50: read-out: BuChE IC50 value
T1 construct: mouse brain S9 fraction was prepared by homogenizing freshly collected mouse brain; from tissue; host or cells: mouse brain S9 fraction (9 000 x g supernatant)
T1 sequence (Q03311 30-603): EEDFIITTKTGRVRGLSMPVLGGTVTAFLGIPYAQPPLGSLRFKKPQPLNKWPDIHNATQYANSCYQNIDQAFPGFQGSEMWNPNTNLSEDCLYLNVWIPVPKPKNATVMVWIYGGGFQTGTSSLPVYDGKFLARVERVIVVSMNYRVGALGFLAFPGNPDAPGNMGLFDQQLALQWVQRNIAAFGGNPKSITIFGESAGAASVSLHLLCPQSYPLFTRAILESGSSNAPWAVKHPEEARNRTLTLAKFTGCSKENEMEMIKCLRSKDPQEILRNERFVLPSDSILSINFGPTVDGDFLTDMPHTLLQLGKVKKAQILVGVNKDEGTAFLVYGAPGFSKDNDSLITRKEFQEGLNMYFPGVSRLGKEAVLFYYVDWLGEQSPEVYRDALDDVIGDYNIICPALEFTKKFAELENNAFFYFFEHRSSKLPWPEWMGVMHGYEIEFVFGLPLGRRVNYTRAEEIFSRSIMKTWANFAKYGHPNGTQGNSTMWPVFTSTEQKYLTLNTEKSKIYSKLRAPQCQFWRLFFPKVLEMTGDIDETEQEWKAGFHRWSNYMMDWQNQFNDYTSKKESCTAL
Procedure: Briefly, mouse brain S9 fraction was prepared by homogenizing freshly collected mouse brain with 50 mM Tris-buffered saline (TBS) (pH 7.4) (1 : 4, w/v), centrifuging the homogenate at 9 000 × g for 20 min at 4°C and collecting the supernatant. The supernatant was then diluted at 1 : 10 with phosphate-buffered saline (100 mM; pH 7.0) and mixed with Ellman's reagent (5,5′-dithiobis-(2-nitrobenzoic acid); DTNB; 1 mM) and studied compounds in DMSO (DMSO concentration was less than 0.5%) on a 96-well plate as 3 parallel assays.

LAT1 = target: T2, LAT1 (Mus musculus, UniProt Q9Z127); experiment: Transporter-mediated cellular uptake into primary astrocytes, primary mechanism (Eadie-Hofstee); format: in vitro ADME; conditions: Eadie-Hofstee analysis, mean ± SD, n = 3
T2 construct: mouse primary astrocytes, from which we have recently characterized LAT1 expression and function; endogenous in cells; host or cells: mouse primary astrocytes (cortex and hippocampi of 2-day-old wild-type and APP/PS1 mice)
T2 sequence (Q9Z127 whole entry): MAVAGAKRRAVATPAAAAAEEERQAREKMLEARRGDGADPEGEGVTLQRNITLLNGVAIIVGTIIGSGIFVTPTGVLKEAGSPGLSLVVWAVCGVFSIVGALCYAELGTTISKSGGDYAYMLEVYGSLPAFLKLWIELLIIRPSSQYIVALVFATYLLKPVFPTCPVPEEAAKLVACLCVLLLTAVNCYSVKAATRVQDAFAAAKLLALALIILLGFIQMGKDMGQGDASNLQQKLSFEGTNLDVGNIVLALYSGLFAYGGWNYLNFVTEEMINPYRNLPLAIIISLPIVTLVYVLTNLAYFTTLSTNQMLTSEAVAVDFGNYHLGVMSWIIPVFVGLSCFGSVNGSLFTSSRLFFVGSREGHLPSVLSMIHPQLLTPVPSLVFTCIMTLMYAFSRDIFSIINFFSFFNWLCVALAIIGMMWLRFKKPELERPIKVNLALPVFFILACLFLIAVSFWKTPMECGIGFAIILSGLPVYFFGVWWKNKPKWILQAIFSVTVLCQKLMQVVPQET
T2 sequence (P10852 whole entry partner): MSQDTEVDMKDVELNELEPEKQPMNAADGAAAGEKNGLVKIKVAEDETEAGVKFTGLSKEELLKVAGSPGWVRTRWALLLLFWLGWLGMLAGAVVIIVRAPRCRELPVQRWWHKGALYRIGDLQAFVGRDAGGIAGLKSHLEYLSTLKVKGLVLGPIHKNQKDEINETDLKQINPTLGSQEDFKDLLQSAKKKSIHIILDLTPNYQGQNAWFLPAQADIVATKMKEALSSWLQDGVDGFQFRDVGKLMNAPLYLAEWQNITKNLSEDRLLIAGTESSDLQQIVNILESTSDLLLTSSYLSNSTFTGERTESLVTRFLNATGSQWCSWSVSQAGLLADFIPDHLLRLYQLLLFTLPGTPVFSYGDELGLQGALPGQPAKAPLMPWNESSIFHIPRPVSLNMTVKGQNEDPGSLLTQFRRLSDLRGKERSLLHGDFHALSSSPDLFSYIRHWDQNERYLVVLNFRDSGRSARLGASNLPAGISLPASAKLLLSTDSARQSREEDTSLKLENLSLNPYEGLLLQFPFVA
Procedure: as §1, §2

mTOR = experiment: Total amount of mTOR (ELISA) in cells; format: cell-based, mouse; conditions: 100 μM; 48 h
Procedure: Enzyme-Linked Immunosorbent Assay (ELISA) kits were used (mTOR SimpleStep ELISA Kit and NFκB p65 Total SimpeStep ELISA Kit, Abcam, Cambridge, UK) to quantify mammalian (or mechanistic) target of rapamycin (mTOR) and transcription factor NF-κB amounts, respectively. […] The control wells were treated with the solvent only (0.5% DMSO). Cells were solubilized using the provided extraction buffer with the kit, incubated on ice for 20 minutes and centrifuged at 18 000 × g for 20 min at 4°C. The supernatants were stored at -80°C till the day of the analysis. Standards and samples were then analyzed following the manufacturer's protocol (ELISA sandwich method) and by reading the absorbance with the EnVision plate reader (EnVision, PerkinElmer, Inc., Waltham, MA, USA) at 450 nm. The results were analyzed as pmol of formed mTOR or NF-κB per mL.

primary astrocytes = experiment: Astrocyte cell growth / viability (resazurin); format: cell-based; conditions: for Concentrations with significant antiproliferative efficacy on astrocytes: 72 h incubation, 5-400 μM; for Effect on astrocyte viability at low concentrations: 5-100 μM, 72 h
Procedure: Primary astrocytes were seeded at the density of 10 × 10^3 cells/well onto collagen-coated 96-well plates. The cells were used for the proliferation experiments one day after seeding. Concentrations of 5-400 μM FA or its LAT1-utilizing derivatives 1-3 were added into the growth medium and incubated for 3 days. Each day, the cell viability was determined by resazurin cell proliferation kit (Sigma, St. Louis, MO, USA), which is directly proportional to aerobic respiration and cellular metabolism of cells. The samples were measured fluorometrically by monitoring the increase in fluorescence at λex 560 nm and λem 590 nm (EnVision, PerkinElmer, Inc., Waltham, MA, USA). The cell viability was also followed by visualizing the wells with microscopy. The ability of compounds to inhibit the viability of the cells was expressed as percentages (%) compared to the untreated controls.

in vitro = in vitro ADME; conditions: mouse; for fraction unbound at 4 h, 10 μM: C57BL/6J
Procedure: The unbound fraction of FA and its derivatives 1-2 was determined at 10 μM in cell homogenate by using a Rapid Equilibrium Dialysis (RED) device (Thermo Fisher Scientific, Inc., Waltham, MA, USA). Briefly, the cell homogenate was prepared from astrocyte cell suspension (10 × 10^6 cells/mL) in HBSS with a SoniPerp 150 Plus disintegrator (MSE Ltd., London, UK) for 2 s × 3. 100 μL of cell homogenate spiked with the studied compound was added to the reaction chamber, and 350 μL of HBSS buffer was added to the buffer chamber of the RED plate. The dialysis plate was incubated at 37°C for 4 h with shaking. 50 μL of samples was taken from the reaction, and buffer chambers and equal size of buffer or blank homogenate were added, respectively, to yield identical matrices. The proteins were precipitated by adding 100 μL of ice-cold ACN (including the selected internal standard; […]

[2] = 10 μM in astrocyte cell homogenate, mean ± SD, n = 3, read-out: Unbound fraction fu,cell

SMILES: COc1cc(C=CC(=O)Oc2cccc(CC(N)C(=O)O)c2)ccc1O (centres unmarked) [FA-derivative 3]
- Secondary transport mechanism (OATP/OAT) K m (OATP/OAT): Autoactivation
- Secondary transport mechanism (OATP/OAT) V max (OATP/OAT): Autoactivation
- IC50 [1]: 236.1 ± 1.26 µM
- Primary transport mechanism (LAT1) K m (LAT1): Autoactivation
- Primary transport mechanism (LAT1) V max (LAT1): Autoactivation
- Reduction of total amount of mTOR (mTOR): approximately 14%
- Concentrations with significant antiproliferative efficacy on astrocytes (primary astrocytes): above 200 μM

SMILES: COc1cc(/C=C/C(=O)O)ccc1O [FA, trans-4-hydroxy-3-methoxycinnamic acid, reference compound]
- Secondary transport mechanism (OATP/OAT) K m (OATP/OAT): Autoactivation
- Secondary transport mechanism (OATP/OAT) V max (OATP/OAT): Autoactivation
- BuChE IC50 value [1]: No inhibition
- Primary transport mechanism (LAT1) K m (LAT1): Autoactivation
- Primary transport mechanism (LAT1) V max (LAT1): Autoactivation
- Reduction of total amount of mTOR (mTOR): did not affect
- fraction unbound at 4 h, 10 μM (in vitro; tissue homogenate): 1
- Unbound fraction fu,cell (in vitro; tissue homogenate): Fully unbound
- Effect on astrocyte viability at low concentrations (primary astrocytes): increased the viability
- Concentrations with significant antiproliferative efficacy on astrocytes (primary astrocytes): above 200 μM

SMILES: COc1cc(C=CC(=O)Nc2cccc(CC(N)C(=O)O)c2)ccc1O (centres unmarked) [FA-derivative 2]
- Secondary transport mechanism (OATP/OAT) K m (OATP/OAT): 153.8 ± 15.0 µM
- Secondary transport mechanism (OATP/OAT) V max (OATP/OAT): 0.172 ± 0.013 nmol/min/mg protein
- BuChE IC50 value [1]: No inhibition
- Primary transport mechanism (LAT1) K m (LAT1): 4.2 ± 0.8 µM
- Primary transport mechanism (LAT1) V max (LAT1): 0.013 ± 0.001 nmol/min/mg protein
- Reduction of total amount of mTOR (mTOR): approximately 32%
- fraction unbound at 4 h, 10 μM (in vitro; [2]): 0.0806 ± 0.0054
- Effect on astrocyte viability at low concentrations (primary astrocytes): increased the viability
- Concentrations with significant antiproliferative efficacy on astrocytes (primary astrocytes): above 200 μM

SMILES: COc1cc(C=CC(=O)NCc2cccc(CC(N)C(=O)O)c2)ccc1O (centres unmarked) [FA-derivative 1]
- Secondary transport mechanism (OATP/OAT) K m (OATP/OAT): 101.1 ± 19.7 µM
- Secondary transport mechanism (OATP/OAT) V max (OATP/OAT): 0.033 ± 0.402 nmol/min/mg protein
- IC50 [1]: 220.8 ± 1.14 µM
- Primary transport mechanism (LAT1) K m (LAT1): 4.1 ± 2.1 µM
- Primary transport mechanism (LAT1) V max (LAT1): 0.008 ± 0.002 nmol/min/mg protein
- Increase of the amount of mTOR (mTOR): approximately 28%
- fraction unbound at 4 h, 10 μM (in vitro; [2]): 0.163 ± 0.0272
- Effect on astrocyte viability at low concentrations (primary astrocytes): increased the viability
- Concentrations with significant antiproliferative efficacy on astrocytes (primary astrocytes): above 200 μM
